Assay: MTD assay, single administration to mice
Format: in vivo
Settings: ICR male mice, tail intravenous administration, 14 days
Description: MTD Assay for a Single […] to Mice
1. Experimental Animals: ICR male mice, weighing 19-22 g, were purchased from Beijing Vital River Laboratory Animal Technology Co., Ltd., Animal License No. SCXK (Beijing) 2007-0001
2. Experimental Scheme: 21 mice were divided into nine groups: groups I, IV and VI referred to one mouse per group, groups II, V and IIX referred to four mice per group, and group III, VI and IX referred to two mice per group. Compound 4, compound 2 and compound 12 were dissolved in water for injection. Groups I-III were subjected to tail intravenous administration of compound 4 (N-[4-(3-chloro-4-fluorophenylamino)-7-(2-methoxyethoxy)quinazolin-6yl]-2-[piperidin-4-ylidene]acetamide dihydrochloride) at doses of 100 mg/kg, 150 mg/kg, and 200 mg/kg, respectively. The animal response and the weight change were observed after administration, and these animals were sacrificed after 14 days for anatomical observation. Groups IV-VI were subjected to tail intravenous administration of compound 2 (N-[4-(3-chloro-4-fluorophenylamino)-7-(2-methoxyethoxy)quinazolin-6yl]-2-[1-(2-methoxyethyl)piperidin-4-ylidene]acetamide dihydrochloride) at doses of 100 mg/kg, 150 mg/kg, and 200 mg/kg, respectively. The animal response and the weight change were observed after administration, and these animals were sacrificed after 14 days for anatomical observation. Groups VII-IX were subjected to tail intravenous administration of compound 12 (N-[4-(3-ethynylphenylamino-7-(2-ethoxy)quinazolin-6yl]-2-[1-methylpiperidin-4-ylidene]acetamide dihydrochloride) at doses of 100 mg/kg, 150 mg/kg, and 200 mg/kg, respectively. The animal response and the weight change were observed after administration, and these animals were sacrificed after 14 days for anatomical observation.

COCCOc1cc2ncnc(Nc3ccc(F)c(Cl)c3)c2cc1NC(=O)C=C1CCN(CCOC)CC1.Cl.Cl [Compound 2, N-[4-(3-chloro-4-fluorophenylamino)-7-(2-methoxyethoxy)quinazolin-6yl]-2-[1-(2-methoxyethyl)piperidin-4-ylidene]acetamide dihydrochloride]
Mortality (100 mg/kg, 1 animal): 0% | Number of Deaths (100 mg/kg, 1 animal): 0 | Mortality (150 mg/kg, 4 animals): 0% | Number of Deaths (150 mg/kg, 4 animals): 0 | Mortality (200 mg/kg, 2 animals): 0% | Number of Deaths (200 mg/kg, 2 animals): 0

Reference: US9840494B2, “Quinazoline derivative” (Tianjin Hemay Oncology Pharmaceutical Co., Ltd., priority 2013, dated 2017)
